One may read the melting point as the temperature, or range, at which the solid turns liquid.

Like-named read-outs stand apart in the source and are kept apart here.

The values that follow come from patent US6440996B1, “Monomeric and dimeric heterocycles, and therapeutic uses thereof” (priority 1998, dated 2002).

Data set [1] is described as follows: Drug discrimination, substitution for cocaine and co-administration with cocaine. It counts as in vivo.
A further data set has as its system Sprague-Dawley rats. The data set is described as follows: Locomotor activity (distance traveled, stereotypic behavior). Type of data set: in vivo.
Data set [2] deals with T1, dopamine transporter (Rattus norvegicus, UniProt P23977).
T1 construct: from tissue; P2 synaptosomes for uptake
The experiment in a line: [3H]WIN 35,428 binding to rat striatal membranes / dopamine transporter binding (DAT). How it is done: (§1) Determination of inhibitory binding potencies of analogues at dopamine, serotonin, and norepinephrine transporters are carried out using standard receptor binding assays which are known in the art.
A. Dopamine Transporter Binding (DAT)

For the next data set, the system named is rats. The data set is described as follows: Intravenous drug self-administration. The following applies: for self-administration responding: i.v., FR10, cocaine 1 mg/kg/infusion, analog 2 0.3-3 mg/kg/infusion, analog 3 0.125-0.5 mg/kg infusion, vs saline extinction. Type of data set: in vivo. The source says:
J. Neurosci., 16, 7416-7427.
Rats were initially trained to lever press for food pellets in standard operant boxes. Following lever press training, rats were implanted with polyvinyl chloride catheters into femoral veins under halothane anesthesia (2-3% in medical grade oxygen) and were allowed to recover for an additional 7 days before initiation of i.v. drug self-administration testing. During drug self-administration sessions, food pellets were no longer delivered, and instead intravenous injections of drugs were delivered by way of the catheter.
Following this second extinction test, self-administration of piperidine analog 2 was studied at doses of 1, 3, and 0.3 mg/kg/infusion in that order. Each dose was tested for five days. During all the re-acquisition test days, a priming infusion was given at the start of the session on each day.

Data set [3] is described as follows: Drug discrimination, substitution for amphetamine. The following applies: for response rates across test doses: amphetamine discrimination. Type of data set: in vivo.
In data set [4] the target is norepinephrine transporter (Rattus norvegicus, UniProt Q9WTR4). The experiment in a line: Norepinephrine transporter binding (NET). As for the experimental part: as §1
C. Norepinephrine Transporter Binding (NET)
J. Med Chem., 36, 2886-2890.

The target in another data set is serotonin transporter (Rattus norvegicus, UniProt P31652). The data set is described as follows: Serotonin transporter binding (5-HTT). How it is done: as §1
B. Serotonin Transporter Binding (5-HTT)
Mol. Pharmacol., 39, 339.

Data set [5] has as its target striatal dopamine transporter (Macaca mulatta, UniProt Q7JHP9). The experiment in a line: PET evaluation of 11C-labeled isomers. As for the experimental part:
The products were purified by HPLC on a C-18 cartridge eluted with MeOH: phosphate/triethylamine buffer, pH 7.2 (60:40).
After passage through a 0.22 μm filter, the sterile products were administered to three Rhesus monkeys and dynamic PET images were acquired over 90 minutes.

Data set [6] deals with T1, dopamine transporter. The experiment in a line: Inhibition of high-affinity [3H]dopamine uptake into rat striatal nerve endings (synaptosomes). Type of data set: biochemical. As for the experimental part:
A. [^3H]Dopamine Uptake Studies
The effect of candidate compounds in antagonizing dopamine high-affinity uptake was determined using a method previously employed. For [^3H]DA uptake, dissected rat striata were homogenized with a Teflon-glass pestle in ice-cold 0.32 M sucrose and centrifuged for 10 min at 1000×g. The supernatant was centrifuged at 17,500×g for 20 min. This P2 synaptosomal pellet was resuspended in 30 volumes of ice-cold modified KRH buffer. An aliquot of the synaptosomal suspension was preincubated with the buffer and drug for 30 min at 37° C., and uptake initiated by the addition of [^3H]dopamine (5 nM, final concentration). After 5 min, uptake was terminated by adding 5 mL of cold buffer containing glucosamine as a substitute for NaCl and then finally by rapid vacuum filtration over GF-C glass fiber filters, followed by washing with two 5 mL volumes of ice-cold, sodium-free buffer. Radioactivity retained on the filters was determined by liquid scintillation spectrometry. […] It is identical to that calculated by subtracting the mean of identical tubes incubated at 0° C.

The subject of data set [7] is dopamine transporter. The following applies: cited from earlier work; for protection from the effect of 10 mM N-ethylmaleimide: 10 μM cocaine, 300 μM dopamine, d-amphetamine.
Setting [8] is: Table 2, read-out: DAT IC50 (nm).
The mark [9] stands for this setting: Table 2, unit inferred, read-out: Dopamine Uptake.
The mark [10] stands for this setting: rat striatal synaptosomes, Table 1, read-out: IC50 (nM) [3H]dopamine uptake.
Setting [11] is: rat striatal membranes, Table 1, read-out: IC50 (nM) [3H]WIN 35,428 binding.

Sequence of serotonin transporter (P31652 whole entry): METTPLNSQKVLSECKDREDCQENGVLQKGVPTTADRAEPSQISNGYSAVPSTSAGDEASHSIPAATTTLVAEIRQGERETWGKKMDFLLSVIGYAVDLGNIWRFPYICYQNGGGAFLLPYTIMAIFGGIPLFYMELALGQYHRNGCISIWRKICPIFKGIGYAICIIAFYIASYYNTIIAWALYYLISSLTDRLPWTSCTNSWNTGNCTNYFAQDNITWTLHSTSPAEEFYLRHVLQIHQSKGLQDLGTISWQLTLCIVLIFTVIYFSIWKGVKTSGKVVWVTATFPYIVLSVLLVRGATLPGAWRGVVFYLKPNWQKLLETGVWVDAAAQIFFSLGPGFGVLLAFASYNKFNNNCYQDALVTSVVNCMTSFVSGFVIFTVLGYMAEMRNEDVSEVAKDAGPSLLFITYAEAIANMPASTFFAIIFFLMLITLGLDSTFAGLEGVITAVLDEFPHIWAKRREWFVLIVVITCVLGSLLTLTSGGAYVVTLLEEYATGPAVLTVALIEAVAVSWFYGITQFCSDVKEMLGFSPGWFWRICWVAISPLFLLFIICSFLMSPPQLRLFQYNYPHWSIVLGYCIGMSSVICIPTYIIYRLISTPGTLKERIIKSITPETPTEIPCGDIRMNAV
Sequence of norepinephrine transporter (Q9WTR4 1-597): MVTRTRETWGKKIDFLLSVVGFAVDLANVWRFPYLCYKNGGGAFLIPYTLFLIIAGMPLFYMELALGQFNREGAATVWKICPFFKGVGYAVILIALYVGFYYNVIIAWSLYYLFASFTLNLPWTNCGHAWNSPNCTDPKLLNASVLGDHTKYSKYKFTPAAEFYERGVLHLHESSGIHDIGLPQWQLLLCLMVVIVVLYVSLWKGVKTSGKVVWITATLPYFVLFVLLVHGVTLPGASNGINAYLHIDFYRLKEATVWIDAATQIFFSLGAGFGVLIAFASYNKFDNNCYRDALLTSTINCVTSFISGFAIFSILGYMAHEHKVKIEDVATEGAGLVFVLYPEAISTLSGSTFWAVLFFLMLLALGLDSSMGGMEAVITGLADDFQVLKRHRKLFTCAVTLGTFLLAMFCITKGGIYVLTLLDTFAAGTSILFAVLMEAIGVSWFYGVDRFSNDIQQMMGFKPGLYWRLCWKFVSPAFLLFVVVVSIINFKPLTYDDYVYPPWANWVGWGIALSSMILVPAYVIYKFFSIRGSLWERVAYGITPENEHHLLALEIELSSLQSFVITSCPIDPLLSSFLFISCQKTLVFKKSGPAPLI
T1 sequence (P23977 whole entry): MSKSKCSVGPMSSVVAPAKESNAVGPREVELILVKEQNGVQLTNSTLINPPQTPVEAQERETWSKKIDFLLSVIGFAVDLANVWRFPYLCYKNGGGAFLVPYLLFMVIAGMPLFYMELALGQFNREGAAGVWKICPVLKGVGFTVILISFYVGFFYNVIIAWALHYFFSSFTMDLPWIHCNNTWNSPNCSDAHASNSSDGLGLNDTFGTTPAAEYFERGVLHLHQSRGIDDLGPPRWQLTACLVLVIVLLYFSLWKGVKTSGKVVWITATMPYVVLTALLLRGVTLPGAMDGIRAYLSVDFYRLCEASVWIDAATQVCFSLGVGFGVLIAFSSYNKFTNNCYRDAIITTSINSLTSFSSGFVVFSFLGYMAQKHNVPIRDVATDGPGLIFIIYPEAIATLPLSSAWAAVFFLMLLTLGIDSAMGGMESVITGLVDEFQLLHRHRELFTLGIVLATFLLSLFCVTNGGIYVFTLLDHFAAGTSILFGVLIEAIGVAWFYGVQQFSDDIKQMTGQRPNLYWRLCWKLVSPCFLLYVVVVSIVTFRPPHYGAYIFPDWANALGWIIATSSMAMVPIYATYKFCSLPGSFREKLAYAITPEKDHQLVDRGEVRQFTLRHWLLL
Sequence of striatal dopamine transporter (Q7JHP9 1-620): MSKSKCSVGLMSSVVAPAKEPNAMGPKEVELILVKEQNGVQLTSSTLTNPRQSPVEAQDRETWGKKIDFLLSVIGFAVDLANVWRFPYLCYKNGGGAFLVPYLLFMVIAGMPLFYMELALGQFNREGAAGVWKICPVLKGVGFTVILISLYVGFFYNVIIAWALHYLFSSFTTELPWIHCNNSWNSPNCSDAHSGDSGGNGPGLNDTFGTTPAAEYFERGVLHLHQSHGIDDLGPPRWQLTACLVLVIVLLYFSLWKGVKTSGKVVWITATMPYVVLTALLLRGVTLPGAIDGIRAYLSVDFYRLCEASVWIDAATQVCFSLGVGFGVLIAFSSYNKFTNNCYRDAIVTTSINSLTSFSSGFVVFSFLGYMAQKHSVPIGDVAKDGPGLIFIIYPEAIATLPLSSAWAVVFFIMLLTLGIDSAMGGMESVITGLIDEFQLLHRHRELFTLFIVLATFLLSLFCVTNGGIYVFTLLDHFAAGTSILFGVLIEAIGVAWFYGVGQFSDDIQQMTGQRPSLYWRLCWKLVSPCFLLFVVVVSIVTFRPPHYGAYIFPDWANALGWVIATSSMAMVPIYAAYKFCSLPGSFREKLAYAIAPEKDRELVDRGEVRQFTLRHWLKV

Regarding `COC(=O)[C@@H]1CN(C)CC[C@H]1c1ccc(Cl)cc1` (racemic) [Compound 2, (±)-trans-Methyl 4-(4-Chlorophenyl)-1-methylpiperidine-3-carboxylate], the “drug choice and response rate performance on co-administration with cocaine” value in [1] (analog 2 10 mg/kg plus cocaine 1.25 and 5 mg/kg, vs cocaine alone) is reported as “did not significantly alter”. Further, the “response rates compared with cocaine (10 mg/kg)” value in [1] (analog 2 5 and 10 mg/kg) is reported as “substantially lower”. For the same molecule, the maximum cocaine-lever responding in data set [1] (analog 2 5 and 20 mg/kg) worked out at 40%. In addition, the “time course of stereotypic response” value in the data set on Sprague-Dawley rats (90 minutes following the drug injection) is recorded as “persistent at 90 minutes”. Besides, the distance traveled result with Sprague-Dawley rats (i.p., cocaine 10 mg/kg, analog 2 3-20 mg/kg, vs saline control) is “did not alter”. In the data set with Sprague-Dawley rats (i.p., cocaine 10 mg/kg, analog 2 10 and 20 mg/kg), the “stereotypic behavior / stereotypic time” value was “small, statistically nonsignificant increase”. Besides, the IC50 is 196 nM on dopamine transporter [2] (DAT IC50 (nm), Table 2) and 197 ± 7.9 nM on dopamine transporter [2] (IC50 (nM) [3H]WIN 35,428 binding, rat striatal membranes, Table 1). For the same molecule, in the data set with rats (analog 2, all doses tested), the “number of infusions delivered vs saline extinction test” value is reported as “not significantly different”. In the data set with rats, the self-administration responding result was “failed to restore”. Also, the “response rates across test doses” value in [3] is “remained fairly stable”. Further, in data set [3] (substitution tests), the maximum amphetamine-lever responding was 53%.
`COC(=O)C1CN(C)CCC1c1cccc2ccccc12` (racemic) [Compound 73, (±)-Methyl 4β-(1-Naphthyl)-1-methylpiperidine-3β-carboxylate] came in with a melting point of 108 to 109 °C. For the same molecule, the IC50 in data set [4] (Table 2, read-out: NET IC50 (nm)) turned out to be 2700 nM. Further, the IC50 on dopamine transporter [2] (setting [8]) worked out at 173 nM. Moreover, on serotonin transporter (5-HTT IC50 (nm), Table 2), the IC50 was 1310 nM.
With `COC(=O)[C@@H]1CN(C)CC[C@@H]1c1ccc2ccccc2c1` (racemic) [Compound 74, (±)-Methyl 4β-(2-Naphthyl)-1-methylpiperidine-3β-carboxylate], the melting point was in the range of 100 to 101 °C. Moreover, in data set [4], the IC50 is 2570 nM. Besides, at dopamine transporter [2] (DAT IC50 (nm), Table 2), the IC50 is 13 nM. The molecule also showed an IC50 at serotonin transporter (5-HTT IC50 (nm), Table 2) of 107 nM.
In the same order, the values of `COC(=O)C1CN(C)CCC1c1ccc(Br)cc1` (single isomer, unassigned; (+)) [Compound 69, (+)-Methyl 4β-(4-Bromophenyl)-1-methylpiperidine-3β-carboxylate] are 125 to 126 °C, 21600 nM, 406 nM and 4130 nM.
Regarding `COC(=O)C1CN(CCCc2ccccc2)CCC1c1ccc(Cl)cc1` (single isomer, unassigned; (-)) [Compound 48, (−)-Methyl 4β-(4-Chlorophenyl)-1-(3-phenylpropyl)-piperidine-3β-carboxylate], the melting point fell in the range of 73 to 75 °C. In data set [4], this molecule yielded an IC50 of 1150 nM. Also, the IC50 at dopamine transporter [2] (DAT IC50 (nm), Table 2) is 157 nM. Besides, the IC50 on serotonin transporter came out at 73200 nM.
For the molecule `COC(=O)C1CN(C)CCC1c1ccc(Br)cc1` (single isomer, unassigned; (-)) [Compound 63, (−)-Methyl 4β-(4-Bromophenyl)-1-methylpiperidine-3β-carboxylate], the melting point fell in the range of 121 to 122 °C. The IC50 on dopamine transporter [2] (DAT IC50 (nm), Table 2) amounted to 3 nM. In addition, the IC50 at serotonin transporter (5-HTT IC50 (nm), Table 2) is 1100 nM.
`C=Cc1ccc(C2CCN(C)CC2C(=O)OC)cc1` (single isomer, unassigned; (-)) [Compound 64, (−)-Methyl 4β-(4-Vinylphenyl)-1-methylpiperidine-3β-carboxylate]: the melting point was 68 to 69 °C. Moreover, the IC50 in data set [4] was 65800 nM. The molecule also displayed an IC50 on serotonin transporter (5-HTT IC50 (nm), Table 2) of 13200 nM.
Take `COC(=O)C1CN(C)CCC1c1ccc(Cl)cc1` (single isomer, unassigned; isomer 4) [cis isomer, 4-(4-chlorophenyl)-3-carbomethoxy-N-methylpiperidine]: the “brain accumulation of 11C-labeled tracer (PET)” value in data set [5] (dynamic PET over 90 minutes) was “greater nonspecific accumulation in the cortex”.
For `COC(=O)[C@@H]1CN(C)CC[C@@H]1c1ccc(Cl)cc1` [Compound 3, (−)-Methyl 4β-(4-Chlorophenyl)-1-methylpiperidine-3β-carboxylate], the IC50 in [4] turned out to be 1630 nM; at dopamine transporter [6] (setting [9]) it was 85 nM; at dopamine transporter [6] (setting [10]) it was 85.2 ± 2.6 nM; at dopamine transporter [2] (setting [8]) it was 25 nM; at dopamine transporter [2] (setting [11]), 24.8 ± 1.6 nM. Also, in the data set with rats, the self-administration responding entry was “reliably self-administered”.
`CC(=O)OC[C@@H]1CN(C)CC[C@@H]1c1ccc(Cl)cc1` [Compound 7, (−)-3β-(Acetoxymethyl)-4β-(4-chlorophenyl)-1-methylpiperidine] displayed a melting point of 76 °C. The molecule also had an IC50 in data set [4] of 233 nM. The IC50 at dopamine transporter [6] (setting [9]) came to 63 nM. Moreover, the IC50 at dopamine transporter [6] (setting [10]) amounted to 62.9 ± 2.7 nM. At dopamine transporter [2] (DAT IC50 (nm), Table 2), this molecule gave an IC50 of 10 nM. In addition, the IC50 on dopamine transporter [2] (setting [11]) worked out at 44.7 ± 10.5 nM.
Turning to `CCN1C(=O)C=CC1=O` [N-Ethyhmaleimide], the “inhibition of the specific binding of [3H]mazindol” value with dopamine transporter [7] (background) is given as “about 95%”.
In the case of `CC(N)Cc1ccccc1` (centres unmarked) [amphetamine, reference compound], in data set [3], the “response rates across test doses” value is listed as “remained fairly stable”. The “substitution for the discriminative stimulus effects of amphetamine” value in [3] (substitution tests) was “dose-dependent and complete substitution”.
Take `C[C@H](N)Cc1ccccc1` [d-amphetamine]: in the data set with dopamine transporter [7], the “protection from the effect of 10 mM N-ethylmaleimide” value is recorded as “neither 300 μM dopamine nor d-amphetamine afforded any significant protection”.
On to `NCCc1ccc(O)c(O)c1` [dopamine], for which the “protection from the effect of 10 mM N-ethylmaleimide” value in the data set on dopamine transporter [7] is listed as “neither 300 μM dopamine nor d-amphetamine afforded any significant protection”.
Consider `COC(=O)C1CN(C)CCC1c1ccc(Cl)cc1` (stereo not drawn) [trans isomers, 4-(4-chlorophenyl)-3-carbomethoxy-N-methylpiperidine], for which the “striatal activity after unlabeled CFT” value in data set [5] (CFT given 60 minutes after injection) was “selective decrease in the striatal activity”.
